According to the supplement of paper PMC13207355:

Assays:
Settings in all cases: exposure time: 72 h
E21 [1] = patient-derived glioblastoma stem cells of mesenchymal subtype; experiment: phenotypic distance (Euclidean, principal components) from DMSO controls (arbitrary units); higher = stronger morphological change
FT3469 [2] = normal neural stem cell line; experiment: as above
E28 [3] = patient-derived glioblastoma stem cells of classical subtype; experiment: as above
E57 [4] = patient-derived glioblastoma stem cells of mesenchymal subtype; experiment: as above
E34 [5] = patient-derived glioblastoma stem cells of proneural subtype; experiment: as above
E13 [6] = patient-derived glioblastoma stem cells of classical subtype; experiment: as above
E31 [7] = patient-derived glioblastoma stem cells of proneural subtype; experiment: as above
E21 [8] = experiment: surviving fraction (nuclei count normalised to DMSO); higher = more cells surviving (less toxic)
FT3469 [9] = experiment: as above
E28 [10] = experiment: as above
E57 [11] = experiment: as above
E34 [12] = experiment: as above
E13 [13] = experiment: as above
E31 [14] = experiment: as above
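For phenotypic distance (Euclidean, principal components) from DMSO controls in this document: cell Painting imaging in 384-well plates, CellProfiler features reduced to at least 20 principal components, Euclidean distance versus same-plate DMSO vehicle wells (0.1% v/v), median over six images per well.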
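For surviving fraction (nuclei count normalised to DMSO) in this document: nuclei counted by high-content imaging of Hoechst-stained cells in laminin-coated 384-well plates, relative to 0.1% DMSO vehicle wells, with staurosporine as cell-death control.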

C=CC(=O)Nc1cccc(Oc2nc(Nc3ccc(N4CCN(C)CC4)cc3)nc3ccsc23)c1 [Olmutinib]
Settings	phenotypic distance	surviving fraction
E13 [6], 4.1 nM	0.908	–
E13 [6], 12.3 nM	0.809	–
E13 [6], 37 nM	2.13	–
E13 [6], 111.1 nM	1.1	–
E13 [6], 333.3 nM	0.827	–
E13 [6], 1000 nM	0.937	–
E13 [6], 3000 nM	1.92	–
E13 [13], 4.1 nM	–	0.944
E13 [13], 12.3 nM	–	0.915
E13 [13], 37 nM	–	0.963
E13 [13], 111.1 nM	–	0.967
E13 [13], 333.3 nM	–	0.965
E13 [13], 1000 nM	–	0.801
E13 [13], 3000 nM	–	0.453
E21 [1], 4.1 nM	0.923	–
E21 [1], 12.3 nM	0.831	–
E21 [1], 37 nM	0.851	–
E21 [1], 111.1 nM	3.27	–
E21 [1], 333.3 nM	1.24	–
E21 [1], 1000 nM	2.44	–
E21 [1], 3000 nM	5.22	–
E21 [8], 4.1 nM	–	0.895
E21 [8], 12.3 nM	–	0.932
E21 [8], 37 nM	–	0.932
E21 [8], 111.1 nM	–	0.759
E21 [8], 333.3 nM	–	0.873
E21 [8], 1000 nM	–	0.67
E21 [8], 3000 nM	–	0.411
E28 [3], 4.1 nM	0.675	–
E28 [3], 12.3 nM	0.862	–
E28 [3], 37 nM	0.601	–
E28 [3], 111.1 nM	0.634	–
E28 [3], 333.3 nM	0.515	–
E28 [3], 1000 nM	1.01	–
E28 [3], 3000 nM	2.28	–
E28 [10], 4.1 nM	–	0.955
E28 [10], 12.3 nM	–	0.88
E28 [10], 37 nM	–	1.02
E28 [10], 111.1 nM	–	0.954
E28 [10], 333.3 nM	–	0.885
E28 [10], 1000 nM	–	0.842
E28 [10], 3000 nM	–	0.419
E31 [7], 4.1 nM	1.5	–
E31 [7], 12.3 nM	0.605	–
E31 [7], 37 nM	0.731	–
E31 [7], 111.1 nM	1.36	–
E31 [7], 333.3 nM	0.65	–
E31 [7], 1000 nM	1.66	–
E31 [7], 3000 nM	4.05	–
E31 [14], 4.1 nM	–	0.776
E31 [14], 12.3 nM	–	0.969
E31 [14], 37 nM	–	1.01
E31 [14], 111.1 nM	–	0.698
E31 [14], 333.3 nM	–	0.856
E31 [14], 1000 nM	–	0.568
E31 [14], 3000 nM	–	0.155
E34 [5], 4.1 nM	0.793	–
E34 [5], 12.3 nM	0.977	–
E34 [5], 37 nM	0.66	–
E34 [5], 111.1 nM	0.999	–
E34 [5], 333.3 nM	0.636	–
E34 [5], 1000 nM	0.75	–
E34 [5], 3000 nM	2.02	–
E34 [12], 4.1 nM	–	0.929
E34 [12], 12.3 nM	–	0.967
E34 [12], 37 nM	–	0.814
E34 [12], 111.1 nM	–	0.994
E34 [12], 333.3 nM	–	0.857
E34 [12], 1000 nM	–	0.804
E34 [12], 3000 nM	–	0.673
E57 [4], 4.1 nM	0.67	–
E57 [4], 12.3 nM	0.94	–
E57 [4], 37 nM	0.658	–
E57 [4], 111.1 nM	2.04	–
E57 [4], 333.3 nM	0.972	–
E57 [4], 1000 nM	0.888	–
E57 [4], 3000 nM	3.89	–
E57 [11], 4.1 nM	–	0.983
E57 [11], 12.3 nM	–	1.09
E57 [11], 37 nM	–	0.983
E57 [11], 111.1 nM	–	0.915
E57 [11], 333.3 nM	–	0.958
E57 [11], 1000 nM	–	0.845
E57 [11], 3000 nM	–	0.585
FT3469 [2], 4.1 nM	1.28	–
FT3469 [2], 12.3 nM	1.16	–
FT3469 [2], 37 nM	1.51	–
FT3469 [2], 111.1 nM	1.24	–
FT3469 [2], 333.3 nM	1.44	–
FT3469 [2], 1000 nM	1.3	–
FT3469 [2], 3000 nM	1.91	–
FT3469 [9], 4.1 nM	–	0.879
FT3469 [9], 12.3 nM	–	0.925
FT3469 [9], 37 nM	–	0.864
FT3469 [9], 111.1 nM	–	0.916
FT3469 [9], 333.3 nM	–	0.851
FT3469 [9], 1000 nM	–	0.856
FT3469 [9], 3000 nM	–	0.722

COc1ccc2[nH]c([S+]([O-])Cc3ncc(C)c(OC)c3C)nc2c1 (stereo unspecified) [Omeprazole]
Settings	phenotypic distance	surviving fraction
E13 [6], 4.1 nM	1.1	–
E13 [6], 12.3 nM	0.755	–
E13 [6], 37 nM	3.51	–
E13 [6], 111.1 nM	0.567	–
E13 [6], 333.3 nM	0.654	–
E13 [6], 1000 nM	2.01	–
E13 [6], 3000 nM	2.52	–
E13 [13], 4.1 nM	–	1.05
E13 [13], 12.3 nM	–	0.938
E13 [13], 37 nM	–	0.905
E13 [13], 111.1 nM	–	1.03
E13 [13], 333.3 nM	–	0.869
E13 [13], 1000 nM	–	1
E13 [13], 3000 nM	–	0.867
E21 [1], 4.1 nM	0.405	–
E21 [1], 12.3 nM	0.66	–
E21 [1], 37 nM	0.543	–
E21 [1], 111.1 nM	0.648	–
E21 [1], 333.3 nM	0.808	–
E21 [1], 1000 nM	0.429	–
E21 [1], 3000 nM	0.519	–
E21 [8], 4.1 nM	–	0.918
E21 [8], 12.3 nM	–	0.928
E21 [8], 37 nM	–	1.02
E21 [8], 111.1 nM	–	0.96
E21 [8], 333.3 nM	–	0.928
E21 [8], 1000 nM	–	0.956
E21 [8], 3000 nM	–	0.943
E28 [3], 4.1 nM	0.44	–
E28 [3], 12.3 nM	0.413	–
E28 [3], 37 nM	0.667	–
E28 [3], 111.1 nM	0.895	–
E28 [3], 333.3 nM	0.743	–
E28 [3], 1000 nM	0.799	–
E28 [3], 3000 nM	0.723	–
E28 [10], 4.1 nM	–	0.929
E28 [10], 12.3 nM	–	1.07
E28 [10], 37 nM	–	1.08
E28 [10], 111.1 nM	–	1.01
E28 [10], 333.3 nM	–	0.973
E28 [10], 1000 nM	–	1.12
E28 [10], 3000 nM	–	1.07
E31 [7], 4.1 nM	0.572	–
E31 [7], 12.3 nM	0.759	–
E31 [7], 37 nM	0.563	–
E31 [7], 111.1 nM	0.747	–
E31 [7], 333.3 nM	0.837	–
E31 [7], 1000 nM	0.778	–
E31 [7], 3000 nM	0.726	–
E31 [14], 4.1 nM	–	0.952
E31 [14], 12.3 nM	–	1.04
E31 [14], 37 nM	–	1.03
E31 [14], 111.1 nM	–	0.985
E31 [14], 333.3 nM	–	1.06
E31 [14], 1000 nM	–	0.947
E31 [14], 3000 nM	–	0.777
E34 [5], 4.1 nM	1.17	–
E34 [5], 12.3 nM	0.774	–
E34 [5], 37 nM	1.1	–
E34 [5], 111.1 nM	0.579	–
E34 [5], 333.3 nM	1.09	–
E34 [5], 1000 nM	0.511	–
E34 [5], 3000 nM	0.693	–
E34 [12], 4.1 nM	–	1.02
E34 [12], 12.3 nM	–	1.19
E34 [12], 37 nM	–	1.12
E34 [12], 111.1 nM	–	0.869
E34 [12], 333.3 nM	–	0.988
E34 [12], 1000 nM	–	1.04
E34 [12], 3000 nM	–	0.988
E57 [4], 4.1 nM	0.551	–
E57 [4], 12.3 nM	0.53	–
E57 [4], 37 nM	0.343	–
E57 [4], 111.1 nM	0.729	–
E57 [4], 333.3 nM	0.596	–
E57 [4], 1000 nM	0.755	–
E57 [4], 3000 nM	1.11	–
E57 [11], 4.1 nM	–	1.08
E57 [11], 12.3 nM	–	0.963
E57 [11], 37 nM	–	0.934
E57 [11], 111.1 nM	–	0.99
E57 [11], 333.3 nM	–	0.91
E57 [11], 1000 nM	–	1.01
E57 [11], 3000 nM	–	0.926
FT3469 [2], 4.1 nM	0.923	–
FT3469 [2], 12.3 nM	0.698	–
FT3469 [2], 37 nM	0.685	–
FT3469 [2], 111.1 nM	1.14	–
FT3469 [2], 333.3 nM	0.549	–
FT3469 [2], 1000 nM	0.593	–
FT3469 [2], 3000 nM	0.772	–
FT3469 [9], 4.1 nM	–	0.946
FT3469 [9], 12.3 nM	–	1.04
FT3469 [9], 37 nM	–	1
FT3469 [9], 111.1 nM	–	0.823
FT3469 [9], 333.3 nM	–	1.04
FT3469 [9], 1000 nM	–	0.979
FT3469 [9], 3000 nM	–	0.976
